This note sets out measurements from ChEMBL document CHEMBL5360611, “Mycobacterium tuberculosis PptT Inhibitors Based on Heterocyclic Replacements of Amidinoureas” (ACS Med Chem Lett, 2023).

In brackets after ≈: the same amount, converted by molar mass. Where only a bound is given, the exact number is not on record here.

Data set [1] relates to Mycobacterium tuberculosis. The experiment in a line: Antimycobacterial activity against Mycobacterium tuberculosis H37Rv assessed as bacterial growth inhibition. Format: functional.
The target of data set [2] is T1, 4'-phosphopantetheinyl transferase PptT (Mycobacterium tuberculosis, UniProt O33336).
T1 sequence (O33336 whole entry): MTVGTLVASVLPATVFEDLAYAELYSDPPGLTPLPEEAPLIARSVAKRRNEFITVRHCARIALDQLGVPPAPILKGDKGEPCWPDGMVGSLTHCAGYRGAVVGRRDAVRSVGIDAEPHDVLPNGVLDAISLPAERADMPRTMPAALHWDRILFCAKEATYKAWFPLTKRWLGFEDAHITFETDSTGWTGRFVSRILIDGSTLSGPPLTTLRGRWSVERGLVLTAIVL
The experiment in a line: Inhibition of Mycobacterium tuberculosis H37Rv PptT by fluorescence polarization assay. Background: In fluorescence polarisation assays a small probe gives low polarisation when free and higher when bound to something large.

The target of data set [3] is T1, 4'-phosphopantetheinyl transferase PptT. The experiment in a line: Inhibition of Mycobacterium tuberculosis H37Rv PptT by BpsA-coupled assay.
Data set [4] shares this target. Description: Inhibition of his-tagged Mycobacterium tuberculosis PptT expressed in Escherichia coli BL21 cells by BpsA-coupled assay.
For data set [5] the target is unchanged. Description: Inhibition of Mycobacterium tuberculosis PptT by fluorescence polarization assay.
The nature of data set [6]: Permeability of compound in human Caco-2 cells. The format is ADME, cell-based. The conditions noted are these: read-out: permeability. On the technique in general: Passage across Caco-2 layers is used to estimate intestinal permeability.
Data set [7] can be described thus: Cytotoxicity against human HepG2 cells. Format: toxicity, cell-based. The conditions noted are these: read-out: TC50 (the source's name).
Data set [8] in a line: Cytotoxicity against human THP-1 cells. The note with it: read-out: TC50 (the source's name). Format: toxicity, cell-based.
Data set [9] is described as follows: Lipophilicity, logD of compound at pH 7.4. The format is physicochemical. The conditions noted are these: buffer.
The nature of data set [10]: Solubility of compound. The format is physicochemical.
Data set [11] has as its target Voltage-gated inwardly rectifying potassium channel KCNH2 (Homo sapiens, UniProt Q12809). Description: Inhibition of hERG transfected in HEK cells by automatic patch clamp analysis. The format is toxicity, cell-based. (In general: hERG is a cardiac potassium channel; its block is linked to QT prolongation.)
Data set [12] concerns the target Voltage-dependent L-type calcium channel subunit alpha-1C (Homo sapiens, UniProt Q13936). The experiment in a line: Inhibition of human Cav1.2 cardiac ion channel transfected in HEK cells by automatic patch clamp analysis. Format: toxicity, cell-based.
Data set [13] deals with Sodium channel protein type 5 subunit alpha (Homo sapiens, UniProt Q14524). The experiment in a line: Inhibition of human Nav1.5 channel ion channel transfected in HEK cells by automatic patch clamp analysis. The format is toxicity, cell-based.
Chain of Sodium channel protein type 5 subunit alpha (Q14524 whole entry): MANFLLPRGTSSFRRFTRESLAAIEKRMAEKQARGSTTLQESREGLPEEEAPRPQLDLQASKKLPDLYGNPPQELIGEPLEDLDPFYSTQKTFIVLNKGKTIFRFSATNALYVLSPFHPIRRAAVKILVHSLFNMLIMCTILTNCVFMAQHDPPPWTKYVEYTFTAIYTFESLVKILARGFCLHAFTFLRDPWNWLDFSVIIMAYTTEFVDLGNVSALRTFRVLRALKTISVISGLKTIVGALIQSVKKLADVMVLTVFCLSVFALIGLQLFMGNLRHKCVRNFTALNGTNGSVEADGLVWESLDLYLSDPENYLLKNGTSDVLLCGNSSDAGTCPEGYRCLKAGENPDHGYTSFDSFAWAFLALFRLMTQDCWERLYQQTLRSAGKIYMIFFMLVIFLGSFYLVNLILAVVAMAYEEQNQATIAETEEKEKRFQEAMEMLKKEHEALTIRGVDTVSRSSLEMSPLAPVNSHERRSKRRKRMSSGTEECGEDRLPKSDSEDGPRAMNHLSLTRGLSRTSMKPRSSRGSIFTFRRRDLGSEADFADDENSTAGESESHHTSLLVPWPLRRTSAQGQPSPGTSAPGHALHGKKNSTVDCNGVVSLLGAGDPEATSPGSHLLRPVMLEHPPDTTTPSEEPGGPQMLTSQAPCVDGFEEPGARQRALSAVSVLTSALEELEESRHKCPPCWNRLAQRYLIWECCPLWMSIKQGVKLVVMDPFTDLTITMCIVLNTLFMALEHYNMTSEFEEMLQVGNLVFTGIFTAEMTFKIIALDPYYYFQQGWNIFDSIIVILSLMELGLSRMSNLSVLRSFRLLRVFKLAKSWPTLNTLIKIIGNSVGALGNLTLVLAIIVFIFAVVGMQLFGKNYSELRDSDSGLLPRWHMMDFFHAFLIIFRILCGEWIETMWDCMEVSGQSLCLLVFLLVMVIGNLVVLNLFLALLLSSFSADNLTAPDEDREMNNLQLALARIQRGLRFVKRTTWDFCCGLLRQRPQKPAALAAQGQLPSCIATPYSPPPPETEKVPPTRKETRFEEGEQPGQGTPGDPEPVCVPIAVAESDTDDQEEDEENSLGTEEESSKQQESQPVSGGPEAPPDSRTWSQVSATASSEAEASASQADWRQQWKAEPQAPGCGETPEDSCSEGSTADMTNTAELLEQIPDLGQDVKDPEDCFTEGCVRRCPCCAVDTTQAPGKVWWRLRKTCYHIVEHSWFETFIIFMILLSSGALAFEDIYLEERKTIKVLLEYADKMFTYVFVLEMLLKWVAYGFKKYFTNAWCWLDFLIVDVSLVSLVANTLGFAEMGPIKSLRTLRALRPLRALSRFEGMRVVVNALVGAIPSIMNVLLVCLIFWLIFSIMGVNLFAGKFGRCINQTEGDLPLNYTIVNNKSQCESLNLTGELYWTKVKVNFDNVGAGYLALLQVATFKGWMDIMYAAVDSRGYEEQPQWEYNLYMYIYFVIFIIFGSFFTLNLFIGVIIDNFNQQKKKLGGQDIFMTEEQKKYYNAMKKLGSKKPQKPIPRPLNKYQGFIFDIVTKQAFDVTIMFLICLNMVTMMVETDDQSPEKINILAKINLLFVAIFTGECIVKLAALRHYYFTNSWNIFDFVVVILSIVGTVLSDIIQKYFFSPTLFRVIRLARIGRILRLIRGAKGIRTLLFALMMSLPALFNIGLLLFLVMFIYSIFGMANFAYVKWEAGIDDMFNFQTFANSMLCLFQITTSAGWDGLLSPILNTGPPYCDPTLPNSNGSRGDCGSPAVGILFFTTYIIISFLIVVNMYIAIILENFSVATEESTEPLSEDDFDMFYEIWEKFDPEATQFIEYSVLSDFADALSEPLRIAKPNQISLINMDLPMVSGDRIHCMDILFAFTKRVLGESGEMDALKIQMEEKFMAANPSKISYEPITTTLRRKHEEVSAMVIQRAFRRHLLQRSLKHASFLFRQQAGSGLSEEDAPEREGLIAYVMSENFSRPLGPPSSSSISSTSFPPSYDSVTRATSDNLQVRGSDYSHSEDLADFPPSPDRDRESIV

Chain of Voltage-gated inwardly rectifying potassium channel KCNH2 (Q12809 whole entry): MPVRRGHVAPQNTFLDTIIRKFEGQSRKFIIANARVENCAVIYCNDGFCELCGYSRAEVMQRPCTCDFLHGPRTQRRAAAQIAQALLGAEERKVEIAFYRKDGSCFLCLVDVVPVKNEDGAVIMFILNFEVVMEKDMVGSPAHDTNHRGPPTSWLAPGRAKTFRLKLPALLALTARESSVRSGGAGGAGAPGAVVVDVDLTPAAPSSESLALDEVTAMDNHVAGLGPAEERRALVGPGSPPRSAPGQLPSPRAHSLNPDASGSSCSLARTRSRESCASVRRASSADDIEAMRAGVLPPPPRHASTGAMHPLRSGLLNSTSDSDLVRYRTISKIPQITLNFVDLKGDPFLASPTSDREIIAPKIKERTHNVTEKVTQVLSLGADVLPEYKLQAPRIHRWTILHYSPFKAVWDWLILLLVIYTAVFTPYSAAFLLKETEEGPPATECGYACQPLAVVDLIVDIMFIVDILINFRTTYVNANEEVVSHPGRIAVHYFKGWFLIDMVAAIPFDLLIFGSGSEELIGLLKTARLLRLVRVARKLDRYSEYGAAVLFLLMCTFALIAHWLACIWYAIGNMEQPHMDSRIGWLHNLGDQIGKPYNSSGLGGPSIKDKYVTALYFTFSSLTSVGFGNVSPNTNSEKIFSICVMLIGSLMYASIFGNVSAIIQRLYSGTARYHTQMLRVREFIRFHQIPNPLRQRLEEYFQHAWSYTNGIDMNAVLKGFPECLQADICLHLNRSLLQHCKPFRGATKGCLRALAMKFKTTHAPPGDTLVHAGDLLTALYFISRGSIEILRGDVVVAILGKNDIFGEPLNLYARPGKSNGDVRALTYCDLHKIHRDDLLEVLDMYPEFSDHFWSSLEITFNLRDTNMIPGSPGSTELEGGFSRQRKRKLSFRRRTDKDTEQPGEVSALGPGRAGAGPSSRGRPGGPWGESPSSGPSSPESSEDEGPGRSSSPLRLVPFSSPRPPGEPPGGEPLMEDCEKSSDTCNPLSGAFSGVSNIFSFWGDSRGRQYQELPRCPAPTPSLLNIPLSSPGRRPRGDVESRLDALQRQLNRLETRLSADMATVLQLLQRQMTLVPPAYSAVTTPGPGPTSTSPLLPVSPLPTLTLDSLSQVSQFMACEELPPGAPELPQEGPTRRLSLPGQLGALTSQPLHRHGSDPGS

On to `CCNc1cccc(Nc2c(C(C)C)cccc2C(C)C)n1`, for which the MIC90 in [1] is more than 100 µM. The same compound came in with an IC50 in [2] of more than 100 µM.

On to `CCc1cccc(CC)c1Nc1cccc(NCC(C)C)n1`, for which the MIC90 in data set [1] was 17 µM (≈ 5.06 µg/mL). The 50% inhibitory concentration (IC50) in data set [3] and in [2] was more than 100 µM in each case.

In the case of `C=C(NCC)NC(=O)Nc1c(CC)cccc1CC`, the half-maximal inhibitory concentration (IC50) in data set [4] is 2.3 µM; in data set [5], 0.23 µM; in data set [11] it was more than 30 µM; in data set [12], 8.4 µM; in data set [13], 3.8 µM. Besides, the MIC90 in [1] came to 3.1 µM (≈ 0.81 µg/mL). Also, in [6], the Papp stood at 4 ×10⁻⁶ cm/s. The CC50 in data set [7] and in data set [8] was more than 30 µM in each case. This compound displayed a pH-dependent lipophilicity (logD) in data set [9] of 1.09. For the same compound, the solubility in data set [10] is more than 1000 µg/mL.

Take `CCNc1ccc(C(F)(F)F)c(Nc2c(CC)cccc2CC)n1`: the MIC90 in data set [1] was 43 µM (≈ 14.5 µg/mL). Also, the IC50 in data set [3] is 30 µM; in data set [2], more than 100 µM; in data set [11], more than 30 µM; in data set [12], 15 µM; in data set [13], 14 µM.

As to `CCNc1nc(Nc2c(CC)cccc2CC)ccc1OC`, the MIC90 in data set [1] amounted to 62 µM (≈ 18.6 µg/mL). Moreover, the IC50 in [3] is 87 µM; in [2], more than 100 µM.

For `CCNc1nc(Nc2c(CC)cccc2CC)ccc1C`, in [1], the MIC90 turned out to be 54 µM (≈ 15.3 µg/mL). Moreover, the IC50 in [3] came to 23 µM.

As to `CCNc1cc(C)cc(Nc2c(CC)cccc2CC)n1`, in [1], the MIC90 is 22 µM (≈ 6.24 µg/mL). Besides, in data set [3], it took 6.4 µM to reach half-maximal inhibition (IC50).

Turning to `CCNc1cccc(Nc2c(CC(F)(F)F)cccc2CC(F)(F)F)n1`, the MIC90 in data set [1] is more than 100 µM. Besides, the IC50 in data set [3] was more than 100 µM; in data set [2] it was 1.3 µM.

As to `CCNc1cc(OC)cc(Nc2c(CC)cccc2CC)n1`, in data set [1], the MIC90 is 16 µM (≈ 4.79 µg/mL). For the same compound, the IC50 in data set [3] was 0.72 µM; in data set [2], 5 µM; in [11], 5.7 µM; in data set [12] it was 3.4 µM; in data set [13], 3.7 µM.

On to `CCNc1cccc(Nc2c(C3CC3)cccc2C2CC2)n1`, for which the MIC90 in data set [1] was found to be 22 µM (≈ 6.46 µg/mL). The compound also yielded an IC50 in data set [3] of 8.4 µM.

Consider `CCNc1nc(Nc2c(CC)cccc2CC)ccc1F`, for which the MIC90 in data set [1] is more than 100 µM. The compound also gave an IC50 in data set [3] of 7.2 µM.

As to `CCNc1ccc(C)c(Nc2c(CC)cccc2CC)n1`, in data set [1], the MIC90 was determined as 55 µM (≈ 15.6 µg/mL). Further, the IC50 in data set [3] was found to be 1.8 µM.

With `CCNc1cccc(Nc2c(CC)cc(C(=O)NC)cc2CC)n1`, the MIC90 in data set [1] worked out at 69 µM (≈ 22.5 µg/mL). In data set [2], this compound came in with an IC50 of 3.3 µM.

In [3], `CCc1cccc(CC)c1/N=C1\CN(CC)C(=N)N1` had an IC50 of 16 µM.

As to `CCNC1=N/C(=N/c2c(Cl)cccc2Cl)CN1`, the half-maximal inhibitory concentration (IC50) in data set [11], in data set [12] and in data set [13] was more than 30 µM each time.

`CCNc1cccc(Nc2c(CC)cccc2CC)n1`: the MIC90 in data set [1] worked out at 42 µM (≈ 11.3 µg/mL). For the same compound, the IC50 was 3.3 µM in data set [3]; 0.71 µM in [2]; 11 µM in [11]; 8.1 µM in data set [12]; 6.9 µM in data set [13].

As for `CCNc1ccc(F)c(Nc2c(CC)cccc2CC)n1`, the MIC90 in [1] is more than 100 µM. Moreover, the IC50 in [3] worked out at 12 µM.

As for `CCc1cccc(CC)c1Nc1cccc(NC)n1`, in [1], the MIC90 stood at 42 µM (≈ 10.7 µg/mL). Also, the IC50 in [3] was 20 µM; in [11], 7.5 µM; in data set [12] it was less than 3 µM; in data set [13], 3.8 µM.

Take `CCNc1cccc(Nc2c(CC)cc(S(=O)(=O)NCC)cc2CC)n1`: the MIC90 in [1] is more than 100 µM. This compound also gave an IC50 in data set [2] of 1 µM.

Regarding `CCc1cccc(CC)c1/N=C1\CNC(=N)N1CC`, it took 84 µM to reach half-maximal inhibition in [3] (IC50).

Turning to `CCc1cccc(CC)c1Nc1cccc(NC(C)C)n1`, the MIC90 in [1] came to 32 µM (≈ 9.07 µg/mL). Also, the half-maximal inhibitory concentration (IC50) in data set [3] and in data set [2] was more than 100 µM throughout.

As for `CCc1cccc(CC)c1Nc1cccc(NC(C)=O)n1`, in [1], the MIC90 was 62 µM (≈ 17.6 µg/mL). Also, the IC50 in [3] and in [2] was more than 100 µM in each case.

For the compound `CCNc1ccc(Cl)c(Nc2c(CC)cccc2CC)n1`, the MIC90 in [1] was more than 100 µM. For the same compound, the IC50 in data set [3] was more than 100 µM.

The term MIC90 denotes an inhibitory concentration at the 90% level, which refers to growth in some studies and to a panel of isolates in others. In general, IC50 refers to the midpoint of a concentration-inhibition curve. For orientation: logD means the decadic logarithm of the distribution of all forms, ionised or not, between an organic phase and buffer at a given pH. Lower therefore signals a more hydrophilic compound. The term solubility denotes the dissolved amount per volume that the medium holds. Higher therefore signals a readily soluble substance.
